According to patent publication US7223759B2, “Antibacterial 3,5-diaminopiperidine-substituted aromatic and heteroaromatic compounds” (Anadys Pharmaceuticals, Inc., priority 2003, dated 2007):

Tested on: Escherichia coli (ATCC25922) or Staphylococcus aureus (ATCC25923)
Experiment: Antibacterial MIC, microdilution method in Mueller-Hinton medium
Format: cell-based
Conditions: Escherichia coli, 18 h, MIC in E. coli or S. aureus; two-fold serial dilutions 64 to 0.5 μg/ml in duplicate; 18 hours of incubation at 35° C.; read-out: Potency (MIC)
Procedure, shortened: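 Two-fold serial dilutions from 64 to 0.5 μg/ml, in duplicate, by broth microdilution in Mueller-Hinton medium (NCCLS M7-A5). MIC taken as the lowest concentration preventing visible growth after 18 h at 35° C.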

Molecule `Cl.N[C@@H]1C[C@H](N)CN(c2nc(N3C[C@H](N)C[C@H](N)C3)nc(-n3cnc4ccccc43)n2)C1` [1-(4,6-Bis-((3R,5S)-3,5-diamino-piperidin-1-yl)-[1,3,5]triazin-2-yl)-1H-benzoimidazole] has an MIC greater than 64 µg/mL.

Same assay, conditions: Escherichia coli, 18 h, read-out: Potency (MIC)

`N[C@@H]1C[C@H](N)CN(c2nc(Nc3ccc(NC(=O)c4cccc(Br)c4)c(O)c3)nc(N3C[C@H](N)C[C@H](N)C3)n2)C1` [N-[4-(3-bromo-benzoylamino)-3-hydroxy-phenyl]-4,6-Bis-((3R,5S)-3,5-diamino-piperidin-1-yl)-[1,3,5]triazine-2-amine] and `N[C@@H]1C[C@H](N)CN(c2nc(Nc3ccc(NC(=O)c4ccc(O)cc4O)cc3)nc(N3C[C@H](N)C[C@H](N)C3)n2)C1` [N-[4-(2,4-dihydroxy-benzoylamino)-phenyl]-4,6-Bis-((3R,5S)-3,5-diamino-piperidin-1-yl)-[1,3,5]triazine-2-amine] cannot be ordered by MIC: less than 16 µg/mL for the first, less than 16 µg/mL for the second.

`CC(=O)c1ccc(Nc2nc(N3C[C@H](N)C[C@H](N)C3)nc(N3C[C@H](O)C[C@H]3CN)n2)cc1` [1-{4-[4-((2S,4R)-2-Aminomethyl-4-hydroxy-pyrrolidin-1-yl)-6-((3R,5S)-3,5-diamino-piperidin-1-yl)-[1,3,5]triazin-2-ylamino]-phenyl}-ethanone] and `NC[C@@H]1C[C@H](CN)CN(c2nc(Nc3ccc(S(=O)(=O)Nc4ccc5cn[nH]c5c4)cc3)nc(N3C[C@H](N)C[C@H](N)C3)n2)C1` [4-[4-((3R,5S)-3,5-Bis-(aminomethyl)-piperidin-1-yl)-6-((3R,5S)-3,5-diamino-piperidin-1-yl)-[1,3,5]triazin-2-ylamino]-N-(1H-indazol-6-yl)-benzenesulfonamide] cannot be ordered by MIC: greater than 64 µg/mL for the first, greater than 64 µg/mL for the second.

`Cc1ccc(S(=O)(=O)N(Cc2ccccc2)c2ccc(Nc3nc(N4C[C@H](N)C[C@H](N)C4)nc(N4C[C@H](N)C[C@H](N)C4)n3)cc2O)cc1` [N-{4-[benzyl-(toluene-4-sulfonyl)-amino]-3-hydroxy-phenyl}-4,6-Bis-((3R,5S)-3,5-diamino-piperidin-1-yl)-[1,3,5]triazine-2-amine] was tested, and the MIC was less than 16 µg/mL.
